Test results published in patent US20140227419A1, “ANTI-FUNGAL AGENT FOR PROCESSED CEREAL FOODS” (NAGASE & co., LTD., priority 2011, published 2014).

System: mold
Test: Anti-fungal effect by spraying method (2): loaves with calcium propionate kneaded into the dough sprayed, mold growth checked visually
Settings: 0.3% calcium propionate kneaded into bread dough; sprayed with nothing
Method: Three hundred and thirty grams of bread dough (dough) of the raw materials blended in the ratio shown in Table 1 (Example 1) was mixed at a low speed for 5 minutes, and then, was mixed at a high speed for 7 minutes. The dough was retained at 35° C. for 100 minutes to be leavened, and then, was baked at 140° C. for 20 minutes to obtain a loaf of bread (hereinafter, referred to as a “loaf”).
The obtained loaf was left to room temperature, and the entire surface of the loaf (approximately 280 g) was sprayed with a spraying agent (approximately 10 μL/cm^2) shown in Table 2 (“0.1% chitinase” means a concentration when 1 mg of chitinase is added with respect to 1 ml of the spraying agent). The loaves were retained in the atmosphere to dry the surface, and then, the loaves were independently put into separate plastic bags and were preserved at a room temperature. The presence or the absence of the growth of mold was checked visually. […]
The anti-fungal effects of the spraying agents 1 to 3 were evaluated in the same manner as in Example 1, except that the raw materials were blended in the ratio shown in Table 1 (Example 2) instead of the ratio shown in Table 1 (Example 1). […]

SMILES: CCC(=O)[O-].CCC(=O)[O-].[Ca+2] [calcium propionate]
- Length of preservation time of bread with calcium propionate kneaded into the dough, without spraying: 11 days
